These are literature values, as cited in patent publication US20240237650A1, “AQUEOUS FUNGICIDE MIXTURE FORMULATION” (ADAMA MAKHTESHIM LTD., priority 2021, published 2024).

For this series the following is noted: 20° C.

Read-outs that look alike come from different tables or passages of the source.

With `CO/C=C(/C(=O)OC)c1ccccc1Oc1cc(Oc2ccccc2C#N)ncn1` [azoxystrobin, methyl (E)-2-{2[6-(2-cyanophenoxy)pyrimidin-4-yloxy]phenyl}-3-methoxyacrylate], the “solubility of azoxystrobin in water” value (pH 5.2 and 7.0) was 6.7 µg/mL; the “solubility of azoxystrobin in water” value (pH 9.2) is 5.9 µg/mL.
